Results from ChEMBL document CHEMBL1149962, “Structural and stereochemical requirements of time-dependent inactivators of the interleukin-1 converting enzyme” (Bioorg Med Chem Lett, 1995).

Legend:
[1] = molecular target: T1, Caspase-1 (Homo sapiens) (UniProt P29466); experiment: Inhibition of IL-1 beta converting enzyme
T1 sequence (whole entry): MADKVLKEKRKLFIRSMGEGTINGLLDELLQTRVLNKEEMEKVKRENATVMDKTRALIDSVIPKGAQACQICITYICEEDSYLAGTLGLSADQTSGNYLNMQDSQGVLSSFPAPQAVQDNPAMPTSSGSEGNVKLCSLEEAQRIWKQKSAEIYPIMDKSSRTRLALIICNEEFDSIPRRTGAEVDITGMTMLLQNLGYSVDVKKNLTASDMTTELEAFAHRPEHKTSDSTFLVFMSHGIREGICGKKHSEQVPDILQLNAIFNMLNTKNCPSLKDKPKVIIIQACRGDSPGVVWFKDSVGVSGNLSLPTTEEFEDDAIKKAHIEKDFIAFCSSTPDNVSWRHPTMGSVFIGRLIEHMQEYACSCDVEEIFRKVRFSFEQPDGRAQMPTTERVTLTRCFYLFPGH

[2] = molecular target: T1, Caspase-1 (Homo sapiens); experiment: k obs/[I] against Interleukin-1-beta Converting enzyme (ICE) was determined.
[3] = molecular target: T2, Caspase-1 (Homo sapiens, UniProt P29466); experiment: Binding affinity against IL-1 beta converting enzyme
T2 sequence (P29466 whole entry): T1 sequence (whole entry)

Structure (SMILES): COC(=O)N[C@H](C(=O)N[C@@H](CC(=O)O)C(=O)COC(=O)c1c(Cl)cccc1Cl)C(C)C
- k obs / 1 [1]: 4900 M⁻¹ s⁻¹

Structure (SMILES): O=C(O)CCC[C@H](NC(=O)OCc1ccccc1)C(=O)COC(=O)c1c(Cl)cccc1Cl
- k obs / 1 [1]: < 1000 M⁻¹ s⁻¹

Structure (SMILES): O=C(O)C[C@H](NC(=O)OCc1ccccc1)C(=O)CSc1c(Cl)cccc1Cl
- k obs / 1 [1]: < 1000 M⁻¹ s⁻¹

Structure (SMILES): C[C@H](NC(=O)[C@@H](C)NC(=O)OCc1ccccc1)C(=O)N[C@@H](CC(=O)O)C(=O)COC(=O)c1c(Cl)cccc1Cl
- k obs / 1 [1]: 10000 M⁻¹ s⁻¹

Structure (SMILES): C[C@@H](NC(=O)OCc1ccccc1)C(=O)N[C@@H](CC(=O)O)C(=O)COC(=O)c1c(Cl)cccc1Cl
- k obs / 1 [1]: < 1000 M⁻¹ s⁻¹

Structure (SMILES): O=C(O)CC[C@H](NC(=O)OCc1ccccc1)C(=O)COC(=O)c1c(Cl)cccc1Cl
- k obs / 1 [2]: < 1000 M⁻¹ s⁻¹

Structure (SMILES): COC(=O)N[C@@H](Cc1cccs1)C(=O)N[C@@H](CC(=O)O)C(=O)COC(=O)c1c(Cl)cccc1Cl
- k obs / 1 [1]: 2500 M⁻¹ s⁻¹

Structure (SMILES): C[C@H](NC(=O)OCc1ccccc1)C(=O)N[C@@H](C)C(=O)N[C@@H](CC(=O)O)C(=O)COC(=O)c1c(Cl)cccc1Cl
- k obs / 1 [1]: 116000 M⁻¹ s⁻¹

Structure (SMILES): COC(=O)N[C@@H](C)C(=O)N[C@@H](CC(=O)O)C(=O)COC(=O)c1c(Cl)cccc1Cl
- k obs / 1 [1]: 7000 M⁻¹ s⁻¹

Structure (SMILES): C[C@@H](C(=O)O)[C@H](NC(=O)OCc1ccccc1)C(=O)COC(=O)c1c(Cl)cccc1Cl
- k obs / 1 [1]: < 1000 M⁻¹ s⁻¹

Structure (SMILES): O=C(N[C@@H](Cc1nnn[nH]1)C(=O)COC(=O)c1c(Cl)cccc1Cl)OCc1ccccc1
- k obs / 1 [1]: < 1000 M⁻¹ s⁻¹

Structure (SMILES): O=C(O)C[C@H](NC(=O)OCc1ccccc1)C(=O)COc1c(Cl)cccc1Cl
- k obs / 1 [1]: < 1000 M⁻¹ s⁻¹

Structure (SMILES): O=C(O)C[C@@H](CCOC(=O)c1c(Cl)cccc1Cl)NC(=O)OCc1ccccc1
- k obs / 1 [1]: < 1000 M⁻¹ s⁻¹

Structure (SMILES): COC(=O)N[C@@H](Cc1c[nH]cn1)C(=O)N[C@@H](CC(=O)O)C(=O)COC(=O)c1c(Cl)cccc1Cl
- k obs / 1 [1]: 2200 M⁻¹ s⁻¹

Structure (SMILES): C[C@H](C(=O)O)[C@H](NC(=O)OCc1ccccc1)C(=O)COC(=O)c1c(Cl)cccc1Cl
- k obs / 1 [1]: < 1000 M⁻¹ s⁻¹

Structure (SMILES): C[C@H](NC(=O)[C@H](Cc1ccccc1)NC(=O)OCc1ccccc1)C(=O)N[C@@H](CC(=O)O)C(=O)COC(=O)c1c(Cl)cccc1Cl
- k obs / 1 [1]: 233000 M⁻¹ s⁻¹

Structure (SMILES): O=C(O)C[C@H](NC(=O)OCc1ccccc1)C(O)COC(=O)c1c(Cl)cccc1Cl (stereo partly specified)
- k obs / 1 [1]: < 1000 M⁻¹ s⁻¹

Structure (SMILES): COC(=O)NCC(=O)N[C@@H](CC(=O)O)C(=O)COC(=O)c1c(Cl)cccc1Cl
- k obs / 1 [1]: < 1000 M⁻¹ s⁻¹

Structure (SMILES): O=C(O)C[C@H](OC(=O)OCc1ccccc1)C(=O)COC(=O)c1c(Cl)cccc1Cl
- k obs / 1 [1]: < 1000 M⁻¹ s⁻¹

Structure (SMILES): O=C(O)C[C@@H](C(=O)COC(=O)c1c(Cl)cccc1Cl)C(=O)NCCc1ccccc1
- k obs / 1 [1]: < 1000 M⁻¹ s⁻¹

Structure (SMILES): CN(C(=O)OCc1ccccc1)[C@@H](CC(=O)O)C(=O)COC(=O)c1c(Cl)cccc1Cl
- k obs / 1 [1]: < 1000 M⁻¹ s⁻¹

Structure (SMILES): CC(C)[C@H](NC(=O)OCc1ccccc1)C(=O)N[C@@H](C)C(=O)N[C@H](C=O)CC(=O)O
- Ki [3]: 0.015 µM

Structure (SMILES): O=C(O)C[C@H](NC(=O)OCc1ccccc1)C(=O)COC(=O)c1c(Cl)cccc1Cl
- k obs / 1 [1]: 7400 M⁻¹ s⁻¹

Structure (SMILES): CC(C)[C@H](NC(=O)OCc1ccccc1)C(=O)N[C@@H](CC(=O)O)C(=O)COC(=O)c1c(Cl)cccc1Cl
- k obs / 1 [1]: 41000 M⁻¹ s⁻¹

Structure (SMILES): CC(C)[C@H](NC(=O)OCc1ccccc1)C(=O)N[C@@H](C)C(=O)N[C@@H](C=O)CC(=O)O
- Ki [3]: 0.015 µM

Structure (SMILES): O=C(O)C[C@@H](CC(=O)COC(=O)c1c(Cl)cccc1Cl)NC(=O)OCc1ccccc1
- k obs / 1 [1]: < 1000 M⁻¹ s⁻¹
